Columns and labels:
Design in all cases: scale not given here
[1] = tested on: ABUTH Velvetleaf; assay: Postemergence herbicidal evaluation, ABUTH; assay type: in vivo, Abutilon theophrasti, Medic.; details: postemergence spray, rated about two-three weeks after treatment
Procedure, shortened: (§1)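 Visual injury rating ~2–3 wk post-spray; replicate tests averaged. Two-week-old seedlings; foliar spray at 40 psi; 0.006–0.400 kg ai/ha in 80/20 acetone/water + 1.0% methylated seed oil.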

[2] = tested on: IPOHE Morningglory, Ivyleaf; assay: Preemergence herbicidal evaluation, IPOHE; assay type: in vivo, Ipomoea hederacea, (L.) Jacq.; details: preemergence
Procedure, shortened: (§2)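 Seeds mixed with potting soil in cups, then sprayed preemergence with aqueous acetone test solution at about 0.013 to 0.800 kg per hectare equivalent. Cups kept under standard greenhouse care; plants rated on a visual scale four to five weeks after treatment.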

[3] = tested on: TRZAWR Wheat, Winter, cv Riband; assay: Preemergence herbicidal evaluation, TRZAWR; assay type: in vivo, Triticum aestivum; details: preemergence
Procedure, shortened: as §2

[4] = tested on: SETVI Foxtail, Green; assay: Postemergence herbicidal evaluation, SETVI; assay type: in vivo, Setaria viridis, (L.) Beau; details: postemergence spray, rated about two-three weeks after treatment
Procedure, shortened: as §1

[5] = tested on: ORYSAT Rice, Tebonnet; assay: Preemergence herbicidal evaluation, ORYSAT; assay type: in vivo, Oryza sativa, (L.); details: preemergence
Procedure, shortened: as §2

[6] = tested on: ORYSAT Rice, Tebonnet; assay: Postemergence herbicidal evaluation, ORYSAT; assay type: in vivo, Oryza sativa, (L.); details: postemergence spray, rated about two-three weeks after treatment
Procedure, shortened: as §1

[7] = tested on: ECHOG Barnyardgrass; assay: Preemergence herbicidal evaluation, ECHOG; assay type: in vivo, Echinochloa crus-galli, (L.) Beau; details: preemergence
Procedure, shortened: as §2

[8] = tested on: ECHOG Barnyardgrass; assay: Postemergence herbicidal evaluation, ECHOG; assay type: in vivo, Echinochloa crus-galli, (L.) Beau; details: postemergence spray, rated about two-three weeks after treatment
Procedure, shortened: as §1

[9] = tested on: ABUTH Velvetleaf; assay: Preemergence herbicidal evaluation, ABUTH; assay type: in vivo, Abutilon theophrasti, Medic.; details: preemergence
Procedure, shortened: as §2

[10] = tested on: SETVI Foxtail, Green; assay: Preemergence herbicidal evaluation, SETVI; assay type: in vivo, Setaria viridis, (L.) Beau; details: preemergence
Procedure, shortened: as §2

[11] = tested on: ZEAMX Corn, Field; assay: Preemergence herbicidal evaluation, ZEAMX; assay type: in vivo, Zea mays, L. (Sammel-Bezeichnung); details: preemergence
Procedure, shortened: as §2

[12] = tested on: AMBEL Ragweed, Common; assay: Postemergence herbicidal evaluation, AMBEL; assay type: in vivo, Ambrosia artemisifolia, L.; details: postemergence spray, rated about two-three weeks after treatment
Procedure, shortened: as §1

[13] = tested on: CASOB Sicklepod; assay: Postemergence herbicidal evaluation, CASOB; assay type: in vivo, Cassia obtusifolia, L.; details: postemergence spray, rated about two-three weeks after treatment
Procedure, shortened: as §1

[14] = tested on: IPOHE Morningglory, Ivyleaf; assay: Postemergence herbicidal evaluation, IPOHE; assay type: in vivo, Ipomoea hederacea, (L.) Jacq.; details: postemergence spray, rated about two-three weeks after treatment
Procedure, shortened: as §1

[15] = tested on: CHEAL Lambsquarters, Common; assay: Preemergence herbicidal evaluation, CHEAL; assay type: in vivo, Chenopodium album, L.; details: preemergence
Procedure, shortened: as §2

[16] = tested on: CASOB Sicklepod; assay: Preemergence herbicidal evaluation, CASOB; assay type: in vivo, Cassia obtusifolia, L.; details: preemergence
Procedure, shortened: as §2

[17] = tested on: GLXMAW Soybean, Williams; assay: Postemergence herbicidal evaluation, GLXMAW; assay type: in vivo, Glycine max, (L.) Merr. cv Williams; details: postemergence spray, rated about two-three weeks after treatment
Procedure, shortened: as §1

[18] = tested on: TRZAWR Wheat, Winter, cv Riband; assay: Postemergence herbicidal evaluation, TRZAWR; assay type: in vivo, Triticum aestivum; details: postemergence spray, rated about two-three weeks after treatment
Procedure, shortened: as §1

[19] = tested on: CHEAL Lambsquarters, Common; assay: Postemergence herbicidal evaluation, CHEAL; assay type: in vivo, Chenopodium album, L.; details: postemergence spray, rated about two-three weeks after treatment
Procedure, shortened: as §1

[20] = tested on: ZEAMX Corn, Field; assay: Postemergence herbicidal evaluation, ZEAMX; assay type: in vivo, Zea mays, L. (Sammel-Bezeichnung); details: postemergence spray, rated about two-three weeks after treatment
Procedure, shortened: as §1

[21] = tested on: AMBEL Ragweed, Common; assay: Preemergence herbicidal evaluation, AMBEL; assay type: in vivo, Ambrosia artemisifolia, L.; details: preemergence
Procedure, shortened: as §2

[22] = tested on: GALAP Galium; assay: Preemergence herbicidal evaluation, GALAP; assay type: in vivo, Galium aparine; details: preemergence
Procedure, shortened: as §2

[23] = tested on: GALAP Galium; assay: Postemergence herbicidal evaluation, GALAP; assay type: in vivo, Galium aparine; details: postemergence spray, rated about two-three weeks after treatment
Procedure, shortened: as §1

[24] = tested on: GLXMAW Soybean, Williams; assay: Preemergence herbicidal evaluation, GLXMAW; assay type: in vivo, Glycine max, (L.) Merr. cv Williams; details: preemergence
Procedure, shortened: as §2

For `COc1ccc(C)c(-n2nnc3cc(F)c(-n4c(=O)cc(C(F)(F)F)n(C)c4=O)cc32)c1` [Example 22], the “Postemergence herbicidal rating ABUTH” value ([1]; 0.008 kg/ha) was 9.0, the “Postemergence herbicidal rating ABUTH” value ([1]; 0.016 kg/ha) was 9.0 and the “Postemergence herbicidal rating ABUTH” value ([1]; 0.032 kg/ha) was 9.0. For the same molecule, the “Postemergence herbicidal rating ABUTH” value ([1]; 0.062 kg/ha) was 9.0, the IPOHE herbicidal rating ([2]; rate 0.016 kg/ha) was 0.0 and the IPOHE herbicidal rating ([2]; rate 0.032 kg/ha) was 0.0. The IPOHE herbicidal rating ([2]; rate 0.062 kg/ha) was 0.0, the IPOHE herbicidal rating ([2]; rate 0.125 kg/ha) was 0.0 and the TRZAWR herbicidal rating ([3]; rate 0.016 kg/ha) was 0.0. The TRZAWR herbicidal rating ([3]; rate 0.032 kg/ha) was 1.0, the TRZAWR herbicidal rating ([3]; rate 0.062 kg/ha) was 2.0 and the TRZAWR herbicidal rating ([3]; rate 0.125 kg/ha) was 4.0. The “Postemergence herbicidal rating SETVI” value ([4]; 0.008 kg/ha) was 0.0, the “Postemergence herbicidal rating SETVI” value ([4]; 0.016 kg/ha) was 0.0 and the “Postemergence herbicidal rating SETVI” value ([4]; 0.032 kg/ha) was 0.0. The “Postemergence herbicidal rating SETVI” value ([4]; 0.062 kg/ha) was 0.0, the ORYSAT herbicidal rating ([5]; rate 0.016 kg/ha) was 0.0 and the ORYSAT herbicidal rating ([5]; rate 0.032 kg/ha) was 0.0. For the same molecule, the ORYSAT herbicidal rating ([5]; rate 0.062 kg/ha) was 0.0, the ORYSAT herbicidal rating ([5]; rate 0.125 kg/ha) was 0.0 and the “Postemergence herbicidal rating ORYSAT” value ([6]; 0.008 kg/ha) was 2.0. For the same molecule, the “Postemergence herbicidal rating ORYSAT” value ([6]; 0.016 kg/ha) was 2.5, the “Postemergence herbicidal rating ORYSAT” value ([6]; 0.032 kg/ha) was 3.0 and the “Postemergence herbicidal rating ORYSAT” value ([6]; 0.062 kg/ha) was 3.0. For the same molecule, the ECHCG herbicidal rating ([7]; rate 0.016 kg/ha) was 0.0, the ECHCG herbicidal rating ([7]; rate 0.032 kg/ha) was 0.0 and the ECHCG herbicidal rating ([7]; rate 0.062 kg/ha) was 2.0. For the same molecule, the ECHCG herbicidal rating ([7]; rate 0.125 kg/ha) was 7.0, the “Postemergence herbicidal rating ECHCG” value ([8]; 0.008 kg/ha) was 0.0 and the “Postemergence herbicidal rating ECHCG” value ([8]; 0.016 kg/ha) was 0.0. The “Postemergence herbicidal rating ECHCG” value ([8]; 0.032 kg/ha) was 0.0, the “Postemergence herbicidal rating ECHCG” value ([8]; 0.062 kg/ha) was 0.0 and the ABUTH herbicidal rating ([9]; rate 0.016 kg/ha) was 0.0. The ABUTH herbicidal rating ([9]; rate 0.032 kg/ha) was 9.0, the ABUTH herbicidal rating ([9]; rate 0.062 kg/ha) was 9.0 and the ABUTH herbicidal rating ([9]; rate 0.125 kg/ha) was 7.0. The SETVI herbicidal rating ([10]; rate 0.016 kg/ha) was 0.0, the SETVI herbicidal rating ([10]; rate 0.032 kg/ha) was 2.0 and the SETVI herbicidal rating ([10]; rate 0.062 kg/ha) was 7.0. For the same molecule, the SETVI herbicidal rating ([10]; rate 0.125 kg/ha) was 9.0, the ZEAMX herbicidal rating ([11]; rate 0.016 kg/ha) was 0.0 and the ZEAMX herbicidal rating ([11]; rate 0.032 kg/ha) was 2.0. The ZEAMX herbicidal rating ([11]; rate 0.062 kg/ha) was 4.0, the ZEAMX herbicidal rating ([11]; rate 0.125 kg/ha) was 6.0 and the “Postemergence herbicidal rating AMBEL” value ([12]; 0.008 kg/ha) was 0.0. The “Postemergence herbicidal rating AMBEL” value ([12]; 0.016 kg/ha) was 0.0, the “Postemergence herbicidal rating AMBEL” value ([12]; 0.032 kg/ha) was 2.0 and the “Postemergence herbicidal rating AMBEL” value ([12]; 0.062 kg/ha) was 3.0. The “Postemergence herbicidal rating CASOB” value ([13]; 0.008 kg/ha) was 0.0, the “Postemergence herbicidal rating CASOB” value ([13]; 0.016 kg/ha) was 0.0 and the “Postemergence herbicidal rating CASOB” value ([13]; 0.032 kg/ha) was 0.0. The “Postemergence herbicidal rating CASOB” value ([13]; 0.062 kg/ha) was 0.0, the “Postemergence herbicidal rating IPOHE” value ([14]; 0.008 kg/ha) was 2.0 and the “Postemergence herbicidal rating IPOHE” value ([14]; 0.016 kg/ha) was 2.0. For the same molecule, the “Postemergence herbicidal rating IPOHE” value ([14]; 0.032 kg/ha) was 9.0, the “Postemergence herbicidal rating IPOHE” value ([14]; 0.062 kg/ha) was 2.0 and the CHEAL herbicidal rating ([15]; rate 0.016 kg/ha) was 9.0. The CHEAL herbicidal rating ([15]; rate 0.032 kg/ha) was 9.0, the CHEAL herbicidal rating ([15]; rate 0.062 kg/ha) was 9.0 and the CHEAL herbicidal rating ([15]; rate 0.125 kg/ha) was 9.0. It also gave a CASOB herbicidal rating ([16]; rate 0.016 kg/ha) of 0.0, a CASOB herbicidal rating ([16]; rate 0.032 kg/ha) of 0.0 and a CASOB herbicidal rating ([16]; rate 0.062 kg/ha) of 0.0. The CASOB herbicidal rating ([16]; rate 0.125 kg/ha) was 0.0, the “Postemergence herbicidal rating GLXMAW” value ([17]; 0.008 kg/ha) was 4.0 and the “Postemergence herbicidal rating GLXMAW” value ([17]; 0.016 kg/ha) was 4.5. The “Postemergence herbicidal rating GLXMAW” value ([17]; 0.032 kg/ha) was 4.0, the “Postemergence herbicidal rating GLXMAW” value ([17]; 0.062 kg/ha) was 5.0 and the “Postemergence herbicidal rating TRZAWR” value ([18]; 0.008 kg/ha) was 3.0. The “Postemergence herbicidal rating TRZAWR” value ([18]; 0.016 kg/ha) was 3.5, the “Postemergence herbicidal rating TRZAWR” value ([18]; 0.032 kg/ha) was 4.0 and the “Postemergence herbicidal rating TRZAWR” value ([18]; 0.062 kg/ha) was 4.5. The “Postemergence herbicidal rating CHEAL” value ([19]; 0.008 kg/ha) was 9.0, the “Postemergence herbicidal rating CHEAL” value ([19]; 0.016 kg/ha) was 9.0 and the “Postemergence herbicidal rating CHEAL” value ([19]; 0.032 kg/ha) was 3.0. For the same molecule, the “Postemergence herbicidal rating CHEAL” value ([19]; 0.062 kg/ha) was 4.0, the “Postemergence herbicidal rating ZEAMX” value ([20]; 0.008 kg/ha) was 4.5 and the “Postemergence herbicidal rating ZEAMX” value ([20]; 0.016 kg/ha) was 4.5. For the same molecule, the “Postemergence herbicidal rating ZEAMX” value ([20]; 0.032 kg/ha) was 4.0, the “Postemergence herbicidal rating ZEAMX” value ([20]; 0.062 kg/ha) was 4.5 and the AMBEL herbicidal rating ([21]; rate 0.016 kg/ha) was 0.0. For the same molecule, the AMBEL herbicidal rating ([21]; rate 0.032 kg/ha) was 0.0, the AMBEL herbicidal rating ([21]; rate 0.062 kg/ha) was 0.0 and the AMBEL herbicidal rating ([21]; rate 0.125 kg/ha) was 0.0. For the same molecule, the GALAP herbicidal rating ([22]; rate 0.016 kg/ha) was 0.0, the GALAP herbicidal rating ([22]; rate 0.032 kg/ha) was 0.0 and the GALAP herbicidal rating ([22]; rate 0.062 kg/ha) was 0.0. The GALAP herbicidal rating ([22]; rate 0.125 kg/ha) was 0.0, the “Postemergence herbicidal rating GALAP” value ([23]; 0.008 kg/ha) was 0.0 and the “Postemergence herbicidal rating GALAP” value ([23]; 0.016 kg/ha) was 0.0. For the same molecule, the “Postemergence herbicidal rating GALAP” value ([23]; 0.032 kg/ha) was 3.0, the “Postemergence herbicidal rating GALAP” value ([23]; 0.062 kg/ha) was 5.0 and the GLXMAW herbicidal rating ([24]; rate 0.016 kg/ha) was 0.0. The GLXMAW herbicidal rating ([24]; rate 0.032 kg/ha) was 0.0, the GLXMAW herbicidal rating ([24]; rate 0.062 kg/ha) was 0.0 and the GLXMAW herbicidal rating ([24]; rate 0.125 kg/ha) was 0.0.

Reference: patent publication US20020111274A1, “1-alkyl-3-[1-(substituted phenyl) benzotriazol-6-yl] uracils” (BASF Aktiengesellschaft, priority 2000, published 2002)
